{"source": "ChEMBL document CHEMBL5614426", "about": "(J Med Chem, 2024)", "key": {"[1]": {"target": "T1, Histone-lysine N-methyltransferase NSD2 (Homo sapiens, UniProt O96028)", "T1 sequence (O96028 whole entry)": "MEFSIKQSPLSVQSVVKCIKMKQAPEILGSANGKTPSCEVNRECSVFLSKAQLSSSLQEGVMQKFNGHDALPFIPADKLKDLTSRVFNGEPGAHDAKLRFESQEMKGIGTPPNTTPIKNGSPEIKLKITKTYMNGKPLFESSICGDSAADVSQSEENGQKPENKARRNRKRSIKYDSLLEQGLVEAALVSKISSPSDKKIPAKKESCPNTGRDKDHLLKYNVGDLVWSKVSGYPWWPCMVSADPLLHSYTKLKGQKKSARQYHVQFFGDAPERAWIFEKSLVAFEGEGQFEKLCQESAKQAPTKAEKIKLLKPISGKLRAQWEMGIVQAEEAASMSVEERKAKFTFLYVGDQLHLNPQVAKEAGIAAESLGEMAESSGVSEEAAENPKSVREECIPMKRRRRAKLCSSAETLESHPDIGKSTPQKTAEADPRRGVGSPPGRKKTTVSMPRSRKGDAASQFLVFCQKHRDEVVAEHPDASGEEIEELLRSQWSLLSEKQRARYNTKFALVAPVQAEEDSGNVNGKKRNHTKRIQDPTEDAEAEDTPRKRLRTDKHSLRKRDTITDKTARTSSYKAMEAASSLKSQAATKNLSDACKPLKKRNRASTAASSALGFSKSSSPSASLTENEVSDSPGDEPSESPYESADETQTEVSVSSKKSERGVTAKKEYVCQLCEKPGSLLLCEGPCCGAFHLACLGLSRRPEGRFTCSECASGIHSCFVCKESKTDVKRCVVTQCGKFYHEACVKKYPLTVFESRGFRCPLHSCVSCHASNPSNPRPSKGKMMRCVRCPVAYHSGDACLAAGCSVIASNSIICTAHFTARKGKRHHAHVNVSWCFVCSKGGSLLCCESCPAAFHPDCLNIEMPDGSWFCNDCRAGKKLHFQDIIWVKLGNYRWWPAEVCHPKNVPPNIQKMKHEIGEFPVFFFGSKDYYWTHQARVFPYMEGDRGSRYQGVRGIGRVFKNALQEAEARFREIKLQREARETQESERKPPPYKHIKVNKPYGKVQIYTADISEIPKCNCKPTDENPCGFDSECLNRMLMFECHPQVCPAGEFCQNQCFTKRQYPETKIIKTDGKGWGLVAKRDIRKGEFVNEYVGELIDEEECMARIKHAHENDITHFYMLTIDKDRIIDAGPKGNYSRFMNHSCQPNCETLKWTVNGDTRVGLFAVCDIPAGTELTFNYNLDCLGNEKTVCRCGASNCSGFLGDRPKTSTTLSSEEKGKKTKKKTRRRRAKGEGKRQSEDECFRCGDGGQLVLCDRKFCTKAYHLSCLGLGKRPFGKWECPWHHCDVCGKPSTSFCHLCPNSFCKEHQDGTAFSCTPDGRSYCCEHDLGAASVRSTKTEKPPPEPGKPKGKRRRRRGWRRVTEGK", "experiment": "Inhibition of NSD2-SET domain (unknown origin)"}, "[2]": {"target": "T2, Histone-lysine N-methyltransferase EHMT1 (Homo sapiens, UniProt Q9H9B1)", "T2 sequence (Q9H9B1 whole entry)": "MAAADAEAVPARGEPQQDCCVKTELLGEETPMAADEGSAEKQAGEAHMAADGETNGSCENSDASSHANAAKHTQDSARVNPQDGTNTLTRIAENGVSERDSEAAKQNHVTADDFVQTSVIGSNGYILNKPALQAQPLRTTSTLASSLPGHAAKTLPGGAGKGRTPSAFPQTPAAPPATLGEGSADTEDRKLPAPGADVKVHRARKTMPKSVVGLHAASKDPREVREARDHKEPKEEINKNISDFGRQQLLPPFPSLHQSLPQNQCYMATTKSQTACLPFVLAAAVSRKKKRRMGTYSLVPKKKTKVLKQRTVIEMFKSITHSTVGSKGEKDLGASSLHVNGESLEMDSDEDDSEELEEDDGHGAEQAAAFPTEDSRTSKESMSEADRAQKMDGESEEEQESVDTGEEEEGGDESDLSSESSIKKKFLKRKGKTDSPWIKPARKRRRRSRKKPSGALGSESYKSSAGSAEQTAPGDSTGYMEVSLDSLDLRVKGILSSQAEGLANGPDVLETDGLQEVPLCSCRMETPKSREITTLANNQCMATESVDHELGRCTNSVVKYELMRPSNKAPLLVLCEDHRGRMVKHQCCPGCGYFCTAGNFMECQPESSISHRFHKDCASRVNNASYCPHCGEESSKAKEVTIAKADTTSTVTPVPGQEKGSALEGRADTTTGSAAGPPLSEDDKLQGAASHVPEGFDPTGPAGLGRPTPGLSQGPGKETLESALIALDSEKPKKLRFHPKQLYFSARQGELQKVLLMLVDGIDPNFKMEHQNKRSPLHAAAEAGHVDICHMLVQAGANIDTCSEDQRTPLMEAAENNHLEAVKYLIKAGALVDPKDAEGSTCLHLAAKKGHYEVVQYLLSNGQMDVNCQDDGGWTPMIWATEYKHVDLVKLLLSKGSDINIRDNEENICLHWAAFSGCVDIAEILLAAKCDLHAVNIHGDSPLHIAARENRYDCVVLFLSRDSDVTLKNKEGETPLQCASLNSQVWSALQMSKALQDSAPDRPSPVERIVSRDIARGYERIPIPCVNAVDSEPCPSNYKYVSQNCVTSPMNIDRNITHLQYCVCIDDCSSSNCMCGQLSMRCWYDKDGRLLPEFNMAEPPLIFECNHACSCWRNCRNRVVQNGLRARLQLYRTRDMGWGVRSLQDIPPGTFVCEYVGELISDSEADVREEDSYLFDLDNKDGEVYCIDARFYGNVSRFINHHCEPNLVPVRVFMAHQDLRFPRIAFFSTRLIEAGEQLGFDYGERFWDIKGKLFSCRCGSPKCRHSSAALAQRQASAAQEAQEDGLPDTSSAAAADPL", "experiment": "Inhibition of GLP (unknown origin)"}, "[3]": {"target": "T3, Histone-arginine methyltransferase CARM1 (Homo sapiens, UniProt Q86X55)", "T3 sequence (Q86X55 whole entry)": "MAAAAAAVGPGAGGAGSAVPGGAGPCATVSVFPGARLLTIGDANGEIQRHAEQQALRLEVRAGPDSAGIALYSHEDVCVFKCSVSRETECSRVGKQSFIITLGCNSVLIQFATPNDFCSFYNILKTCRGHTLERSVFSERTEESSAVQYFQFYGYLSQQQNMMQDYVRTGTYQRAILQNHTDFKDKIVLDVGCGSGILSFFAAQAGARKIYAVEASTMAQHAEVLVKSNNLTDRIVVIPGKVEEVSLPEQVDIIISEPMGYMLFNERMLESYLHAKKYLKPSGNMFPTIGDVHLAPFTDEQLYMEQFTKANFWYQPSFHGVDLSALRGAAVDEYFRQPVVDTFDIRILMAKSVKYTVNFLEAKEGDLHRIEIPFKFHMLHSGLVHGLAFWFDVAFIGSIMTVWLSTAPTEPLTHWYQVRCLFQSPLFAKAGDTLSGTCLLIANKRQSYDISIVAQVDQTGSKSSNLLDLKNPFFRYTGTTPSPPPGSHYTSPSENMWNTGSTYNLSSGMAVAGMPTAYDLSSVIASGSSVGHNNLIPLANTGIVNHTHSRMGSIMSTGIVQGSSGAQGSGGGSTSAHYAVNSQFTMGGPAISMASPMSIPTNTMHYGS", "experiment": "Inhibition of PRMT4 (unknown origin)"}, "[4]": {"target": "Protein arginine N-methyltransferase 5 (Homo sapiens, UniProt O14744)", "sequence (O14744 whole entry)": "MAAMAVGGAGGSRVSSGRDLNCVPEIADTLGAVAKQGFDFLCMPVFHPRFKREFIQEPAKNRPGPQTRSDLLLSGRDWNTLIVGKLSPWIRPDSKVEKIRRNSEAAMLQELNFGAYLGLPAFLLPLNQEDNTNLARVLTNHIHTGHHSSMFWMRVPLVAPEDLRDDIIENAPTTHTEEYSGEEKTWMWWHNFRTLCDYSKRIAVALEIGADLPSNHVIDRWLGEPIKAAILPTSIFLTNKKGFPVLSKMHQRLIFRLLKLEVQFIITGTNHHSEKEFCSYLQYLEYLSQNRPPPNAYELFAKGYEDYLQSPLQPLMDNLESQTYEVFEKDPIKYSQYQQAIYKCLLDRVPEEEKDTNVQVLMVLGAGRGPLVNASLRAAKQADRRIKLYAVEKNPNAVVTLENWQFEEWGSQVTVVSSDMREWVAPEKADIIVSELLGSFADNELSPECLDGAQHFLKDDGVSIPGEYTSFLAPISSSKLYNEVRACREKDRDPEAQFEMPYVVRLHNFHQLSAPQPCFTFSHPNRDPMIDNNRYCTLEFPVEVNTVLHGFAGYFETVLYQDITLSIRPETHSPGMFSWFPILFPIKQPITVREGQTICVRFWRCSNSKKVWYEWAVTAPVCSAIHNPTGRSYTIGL", "experiment": "Inhibition of PRMT5 (unknown origin)"}, "[5]": {"target": "Protein arginine N-methyltransferase 8 (Homo sapiens, UniProt Q9NR22)", "sequence (Q9NR22 whole entry)": "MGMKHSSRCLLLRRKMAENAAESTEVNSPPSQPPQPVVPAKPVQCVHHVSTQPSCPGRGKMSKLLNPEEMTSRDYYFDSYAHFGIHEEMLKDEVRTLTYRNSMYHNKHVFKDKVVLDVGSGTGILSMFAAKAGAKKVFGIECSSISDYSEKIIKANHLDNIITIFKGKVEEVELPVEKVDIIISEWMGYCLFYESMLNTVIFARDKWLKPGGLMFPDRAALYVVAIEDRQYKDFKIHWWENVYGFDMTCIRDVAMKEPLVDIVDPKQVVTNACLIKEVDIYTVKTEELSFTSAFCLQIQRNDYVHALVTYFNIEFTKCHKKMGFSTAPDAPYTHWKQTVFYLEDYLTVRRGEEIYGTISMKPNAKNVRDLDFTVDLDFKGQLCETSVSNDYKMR", "experiment": "Inhibition of PRMT8 (unknown origin)"}, "[6]": {"target": "Histone-lysine N-methyltransferase EZH2 (Homo sapiens, UniProt Q15910)", "experiment": "Inhibition of EZH2 (unknown origin)"}, "[7]": {"target": "Histone-lysine N-methyltransferase 2A (Homo sapiens, UniProt Q03164)", "sequence (Q03164 1-2718 limits assumed)": "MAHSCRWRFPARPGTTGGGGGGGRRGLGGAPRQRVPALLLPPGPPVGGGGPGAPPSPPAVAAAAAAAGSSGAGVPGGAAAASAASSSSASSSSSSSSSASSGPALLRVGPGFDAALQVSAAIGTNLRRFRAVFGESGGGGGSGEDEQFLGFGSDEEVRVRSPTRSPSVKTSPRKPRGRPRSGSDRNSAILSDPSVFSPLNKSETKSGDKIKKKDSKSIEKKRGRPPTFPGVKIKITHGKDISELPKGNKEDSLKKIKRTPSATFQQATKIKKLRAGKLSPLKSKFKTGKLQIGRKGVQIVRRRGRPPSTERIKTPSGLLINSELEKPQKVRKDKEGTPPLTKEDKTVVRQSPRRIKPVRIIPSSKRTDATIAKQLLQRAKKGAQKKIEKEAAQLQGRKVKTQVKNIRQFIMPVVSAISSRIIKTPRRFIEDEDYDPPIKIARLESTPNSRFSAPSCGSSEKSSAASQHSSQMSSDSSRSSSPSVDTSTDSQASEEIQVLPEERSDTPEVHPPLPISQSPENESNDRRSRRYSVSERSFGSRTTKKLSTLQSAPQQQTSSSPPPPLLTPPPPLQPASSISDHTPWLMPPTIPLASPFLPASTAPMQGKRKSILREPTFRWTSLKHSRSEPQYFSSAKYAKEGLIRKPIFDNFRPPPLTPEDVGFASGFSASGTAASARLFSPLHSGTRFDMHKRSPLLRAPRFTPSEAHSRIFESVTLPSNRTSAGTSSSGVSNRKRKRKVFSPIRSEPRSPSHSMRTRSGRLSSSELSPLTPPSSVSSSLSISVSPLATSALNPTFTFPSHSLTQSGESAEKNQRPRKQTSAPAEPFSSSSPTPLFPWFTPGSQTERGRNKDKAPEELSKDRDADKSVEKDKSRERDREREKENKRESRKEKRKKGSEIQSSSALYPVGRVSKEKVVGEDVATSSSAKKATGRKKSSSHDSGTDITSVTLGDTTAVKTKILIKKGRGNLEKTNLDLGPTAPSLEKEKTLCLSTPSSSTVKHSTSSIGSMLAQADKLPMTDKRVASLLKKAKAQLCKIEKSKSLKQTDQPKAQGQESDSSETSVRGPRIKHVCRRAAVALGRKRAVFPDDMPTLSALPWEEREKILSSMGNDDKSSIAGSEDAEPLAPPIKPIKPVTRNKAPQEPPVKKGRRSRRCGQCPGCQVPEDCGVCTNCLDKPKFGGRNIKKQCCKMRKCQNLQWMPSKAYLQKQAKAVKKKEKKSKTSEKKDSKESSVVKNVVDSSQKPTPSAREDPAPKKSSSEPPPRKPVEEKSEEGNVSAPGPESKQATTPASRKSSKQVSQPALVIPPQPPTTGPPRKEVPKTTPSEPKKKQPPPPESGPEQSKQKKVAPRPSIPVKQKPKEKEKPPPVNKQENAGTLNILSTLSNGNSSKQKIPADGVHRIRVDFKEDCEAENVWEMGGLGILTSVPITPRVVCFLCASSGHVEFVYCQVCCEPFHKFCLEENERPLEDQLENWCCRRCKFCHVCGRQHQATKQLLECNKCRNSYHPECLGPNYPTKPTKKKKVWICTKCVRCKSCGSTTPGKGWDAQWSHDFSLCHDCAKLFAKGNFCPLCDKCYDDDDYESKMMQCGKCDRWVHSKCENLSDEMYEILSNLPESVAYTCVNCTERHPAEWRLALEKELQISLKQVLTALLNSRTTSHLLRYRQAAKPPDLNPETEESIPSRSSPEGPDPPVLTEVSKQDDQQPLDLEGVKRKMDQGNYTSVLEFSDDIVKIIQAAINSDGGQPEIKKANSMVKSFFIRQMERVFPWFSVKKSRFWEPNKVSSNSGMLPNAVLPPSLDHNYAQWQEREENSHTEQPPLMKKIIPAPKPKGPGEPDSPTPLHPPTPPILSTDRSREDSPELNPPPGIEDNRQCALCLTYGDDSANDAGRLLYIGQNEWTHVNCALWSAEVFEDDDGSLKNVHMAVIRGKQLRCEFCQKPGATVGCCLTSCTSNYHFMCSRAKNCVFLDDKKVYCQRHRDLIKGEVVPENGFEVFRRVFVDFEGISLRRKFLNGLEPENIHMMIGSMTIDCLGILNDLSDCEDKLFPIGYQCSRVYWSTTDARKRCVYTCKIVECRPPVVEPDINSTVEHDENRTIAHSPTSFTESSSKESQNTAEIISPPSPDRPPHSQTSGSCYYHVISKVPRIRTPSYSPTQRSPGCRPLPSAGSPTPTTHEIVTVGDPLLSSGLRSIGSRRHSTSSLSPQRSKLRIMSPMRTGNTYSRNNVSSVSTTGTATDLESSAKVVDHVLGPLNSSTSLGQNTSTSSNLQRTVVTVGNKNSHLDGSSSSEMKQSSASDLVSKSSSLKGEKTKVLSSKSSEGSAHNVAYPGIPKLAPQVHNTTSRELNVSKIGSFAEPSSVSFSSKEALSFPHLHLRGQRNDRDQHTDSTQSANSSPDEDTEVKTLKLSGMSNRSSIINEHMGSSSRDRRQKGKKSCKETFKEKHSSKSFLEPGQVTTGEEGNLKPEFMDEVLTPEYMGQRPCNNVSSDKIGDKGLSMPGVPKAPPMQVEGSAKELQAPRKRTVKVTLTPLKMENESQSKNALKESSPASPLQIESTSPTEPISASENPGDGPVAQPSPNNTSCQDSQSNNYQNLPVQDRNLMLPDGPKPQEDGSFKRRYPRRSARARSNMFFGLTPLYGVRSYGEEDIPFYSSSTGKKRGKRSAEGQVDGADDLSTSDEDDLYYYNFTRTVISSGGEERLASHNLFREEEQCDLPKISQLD", "sequence (Q03164 2719-3969 limits assumed)": "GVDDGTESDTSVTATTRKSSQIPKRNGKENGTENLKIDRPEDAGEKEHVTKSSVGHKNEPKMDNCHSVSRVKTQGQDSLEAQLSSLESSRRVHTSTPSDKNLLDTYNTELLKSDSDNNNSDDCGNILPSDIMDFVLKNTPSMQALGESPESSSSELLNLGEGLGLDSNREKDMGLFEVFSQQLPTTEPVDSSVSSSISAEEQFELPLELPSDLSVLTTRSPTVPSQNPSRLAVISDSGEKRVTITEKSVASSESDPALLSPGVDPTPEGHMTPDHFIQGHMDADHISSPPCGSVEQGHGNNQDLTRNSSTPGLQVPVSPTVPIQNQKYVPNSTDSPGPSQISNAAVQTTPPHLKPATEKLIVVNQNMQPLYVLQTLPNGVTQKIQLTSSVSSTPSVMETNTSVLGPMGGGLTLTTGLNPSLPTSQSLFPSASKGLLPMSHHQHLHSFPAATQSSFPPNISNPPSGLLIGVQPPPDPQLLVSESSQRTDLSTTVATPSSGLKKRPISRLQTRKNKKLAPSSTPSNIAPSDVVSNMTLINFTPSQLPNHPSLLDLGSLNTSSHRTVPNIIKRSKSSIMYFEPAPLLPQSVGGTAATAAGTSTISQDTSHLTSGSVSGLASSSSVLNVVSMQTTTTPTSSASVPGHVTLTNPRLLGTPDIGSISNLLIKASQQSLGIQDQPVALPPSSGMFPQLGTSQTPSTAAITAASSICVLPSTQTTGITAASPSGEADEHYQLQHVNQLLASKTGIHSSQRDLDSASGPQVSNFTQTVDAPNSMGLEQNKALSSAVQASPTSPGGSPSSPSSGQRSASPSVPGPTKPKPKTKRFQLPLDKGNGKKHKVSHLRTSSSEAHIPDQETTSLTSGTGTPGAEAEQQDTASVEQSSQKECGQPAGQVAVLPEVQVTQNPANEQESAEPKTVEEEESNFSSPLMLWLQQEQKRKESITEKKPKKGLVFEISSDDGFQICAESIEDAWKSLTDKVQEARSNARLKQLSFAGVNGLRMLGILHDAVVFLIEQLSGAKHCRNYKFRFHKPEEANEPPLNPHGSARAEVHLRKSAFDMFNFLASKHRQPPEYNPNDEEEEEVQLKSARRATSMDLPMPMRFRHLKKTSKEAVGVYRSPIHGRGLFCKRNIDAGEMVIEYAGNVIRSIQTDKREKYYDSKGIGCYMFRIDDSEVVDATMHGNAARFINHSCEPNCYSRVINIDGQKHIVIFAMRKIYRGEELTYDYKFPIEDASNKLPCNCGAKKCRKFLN", "experiment": "Inhibition of MLL1 (unknown origin)"}, "[8]": {"target": "Histone-lysine N-methyltransferase 2B (Homo sapiens, UniProt Q9UMN6)", "experiment": "Inhibition of MLL4 (unknown origin)"}, "[9]": {"target": "DNA (cytosine-5)-methyltransferase 1 (Homo sapiens, UniProt P26358)", "experiment": "Inhibition of DNMT1 (unknown origin)"}, "[10]": {"experiment": "Half life in mouse at 1 mg/kg, iv measured upto 24 hrs by LC-MS/MS analysis", "assay_type": "ADME, organism-based", "conditions": "in vivo"}, "[11]": {"experiment": "Cmax in mouse at 1 mg/kg, iv measured upto 24 hrs by LC-MS/MS analysis", "assay_type": "ADME, organism-based", "conditions": "in vivo"}, "[12]": {"experiment": "AUC (0 to last) in mouse at 1 mg/kg, iv measured upto 24 hrs by LC-MS/MS analysis", "assay_type": "ADME, organism-based", "conditions": "in vivo"}, "[13]": {"experiment": "AUC (0 to infinity) in mouse at 1 mg/kg, iv measured upto 24 hrs by LC-MS/MS analysis", "assay_type": "ADME, organism-based", "conditions": "in vivo"}, "[14]": {"experiment": "MRT (0 to t) in mouse at 1 mg/kg, iv measured upto 24 hrs by LC-MS/MS analysis", "assay_type": "ADME, organism-based", "conditions": "in vivo"}, "[15]": {"experiment": "Volume of distribution at steady state in mouse at 1 mg/kg, iv measured upto 24 hrs by LC-MS/MS analysis", "assay_type": "ADME, organism-based", "conditions": "in vivo, read-out: Vdss"}, "[16]": {"experiment": "Oral bioavailability in mouse at 50 mg/kg measured upto 24 hrs by LC-MS/MS analysis", "assay_type": "ADME, organism-based", "conditions": "in vivo"}, "[17]": {"experiment": "Half life in mouse at 50 mg/kg, po measured upto 24 hrs by LC-MS/MS analysis", "assay_type": "ADME, organism-based", "conditions": "in vivo"}, "[18]": {"experiment": "Cmax in mouse at 50 mg/kg, po measured upto 24 hrs by LC-MS/MS analysis", "assay_type": "ADME, organism-based", "conditions": "in vivo"}, "[19]": {"experiment": "AUC (0 to last) in mouse at 50 mg/kg, po measured upto 24 hrs by LC-MS/MS analysis", "assay_type": "ADME, organism-based", "conditions": "in vivo"}, "[20]": {"experiment": "AUC (0 to infinity) in mouse at 50 mg/kg, po measured upto 24 hrs by LC-MS/MS analysis", "assay_type": "ADME, organism-based", "conditions": "in vivo"}, "[21]": {"experiment": "MRT (0 to t) in mouse at 50 mg/kg, po measured upto 24 hrs by LC-MS/MS analysis", "assay_type": "ADME, organism-based", "conditions": "in vivo"}, "[22]": {"experiment": "Toxicity in female NU/NU mouse xenografted with human RS4-11 cells assessed as change in body weight at 50 mg/kg, po administered for 21 days", "assay_type": "organism-based", "conditions": "in vivo, 504 h, time 21 day"}}, "data": [{"smiles": "COc1cc(F)c(-c2cc(Cn3cnc4c(N)ncnc43)c(N3CCC[C@](N)([C@H](O)C(F)F)C3)cn2)cc1F", "values": [{"measurement": "IC50", "setting": "[1]", "result": "< 0.1", "unit": "µM"}]}, {"smiles": "COc1cc2c(NC3CCN(C(C)C)CC3)nc(C#N)nc2cc1OCCCN1CCOCC1", "values": [{"measurement": "IC50", "setting": "[2]", "result": "> 10", "unit": "µM"}, {"measurement": "IC50", "setting": "[3]", "result": 8.96, "unit": "µM"}, {"measurement": "IC50", "setting": "[4]", "result": "> 10", "unit": "µM"}, {"measurement": "IC50", "setting": "[5]", "result": "> 10", "unit": "µM"}, {"measurement": "IC50", "setting": "[6]", "result": "> 10", "unit": "µM"}, {"measurement": "IC50", "setting": "[7]", "result": "> 10", "unit": "µM"}, {"measurement": "IC50", "setting": "[8]", "result": "> 10", "unit": "µM"}, {"measurement": "IC50", "setting": "[9]", "result": "> 10", "unit": "µM"}, {"measurement": "t1/2", "setting": "[10]", "result": 8, "unit": "h"}, {"measurement": "Cmax", "setting": "[11]", "result": 280, "unit": "nM"}, {"measurement": "AUClast", "setting": "[12]", "result": 123.9, "unit": "ng·h/mL"}, {"measurement": "AUC", "setting": "[13]", "result": 134, "unit": "ng·h/mL"}, {"measurement": "MRT last at 24 h", "setting": "[14]", "result": 6.12, "unit": "h"}, {"measurement": "Vd", "setting": "[15]", "result": 46, "unit": "L/kg"}, {"measurement": "bioavailability", "setting": "[16]", "result": 27.3, "unit": "%"}, {"measurement": "half-life", "setting": "[17]", "result": 6.35, "unit": "h"}, {"measurement": "Cmax", "setting": "[18]", "result": 1160, "unit": "nM"}, {"measurement": "AUClast", "setting": "[19]", "result": 1694.02, "unit": "ng·h/mL"}, {"measurement": "AUC", "setting": "[20]", "result": 1760, "unit": "ng·h/mL"}, {"measurement": "MRT last at 24 h", "setting": "[21]", "result": 5.3, "unit": "h"}, {"measurement": "Activity", "setting": "[22]", "result": "Non-Toxic"}]}]}
